Measured values taken from ChEMBL document CHEMBL4257449, “New N-(2-phenyl-4-oxo-1,3-thiazolidin-3-yl)-1,2-benzothiazole-3-carboxamides and acetamides as antimicrobial agents” (2017).
≈ marks a conversion by molar mass, not a printed value.

Assays:
[1] = system: Talaromyces funiculosus; test: Antifungal activity against Penicillium funiculosum ATCC 36839 after 72 hrs by serial dilution method; assay type: functional; conditions: ATCC 36839, 72 h
[2] = system: Aspergillus versicolor; test: Fungicidal activity against Aspergillus versicolor ATCC 11730 incubated for 72 hrs followed by serial sub-cultivation for 72 hrs and measured after 72 hrs by serial dilution method; assay type: functional
[3] = system: Pseudomonas aeruginosa; test: Antibacterial activity against Pseudomonas aeruginosa ATCC 27853 after 24 hrs by microdilution method; assay type: functional; conditions: ATCC 27853, 24 h
[4] = system: Trichoderma viride; test: Fungicidal activity against Trichoderma viride IAM 5061 incubated for 72 hrs followed by serial sub-cultivation for 72 hrs and measured after 72 hrs by serial dilution method; assay type: functional
[5] = system: Bacillus cereus; test: Antibacterial activity against Bacillus cereus after 24 hrs by microdilution method; assay type: functional
[6] = system: Penicillium ochrochloron; test: Fungicidal activity against Penicillium ochrochloron ATCC 9112 incubated for 72 hrs followed by serial sub-cultivation for 72 hrs and measured after 72 hrs by serial dilution method; assay type: functional
[7] = system: Escherichia coli; test: Bactericidal activity against Escherichia coli ATCC 35210 incubated for 24 hrs followed by serial sub-cultivation and measured after 24 hrs by microdilution method; assay type: functional
[8] = system: Staphylococcus aureus; test: Antibacterial activity against Staphylococcus aureus ATCC 6538 after 24 hrs by microdilution method; assay type: functional; conditions: ATCC 6538, 24 h
[9] = system: Talaromyces funiculosus; test: Fungicidal activity against Penicillium funiculosum ATCC 36839 incubated for 72 hrs followed by serial sub-cultivation for 72 hrs and measured after 72 hrs by serial dilution method; assay type: functional
[10] = system: Aspergillus fumigatus; test: Antifungal activity against Aspergillus fumigatus after 72 hrs by serial dilution method; assay type: functional
[11] = system: Salmonella typhimurium; test: Bactericidal activity against Salmonella typhimurium ATCC 13311 incubated for 24 hrs followed by serial sub-cultivation and measured after 24 hrs by microdilution method; assay type: functional, Salmonella enterica subsp. enterica serovar Typhimurium
[12] = system: Aspergillus niger; test: Antifungal activity against Aspergillus niger ATCC 6275 after 72 hrs by serial dilution method; assay type: functional; conditions: ATCC 6275, 72 h
[13] = system: Listeria monocytogenes; test: Antibacterial activity against Listeria monocytogenes NCTC 7973 after 24 hrs by microdilution method; assay type: functional; conditions: NCTC 7973, 24 h
[14] = system: Candida albicans; test: Antifungal activity against Candida albicans after 72 hrs by serial dilution method; assay type: functional
[15] = system: Enterobacter cloacae; test: Antibacterial activity against Enterobacter cloacae after 24 hrs by microdilution method; assay type: functional
[16] = system: Aspergillus versicolor; test: Antifungal activity against Aspergillus versicolor ATCC 11730 after 72 hrs by serial dilution method; assay type: functional; conditions: ATCC 11730, 72 h
[17] = system: Penicillium ochrochloron; test: Antifungal activity against Penicillium ochrochloron ATCC 9112 after 72 hrs by serial dilution method; assay type: functional; conditions: ATCC 9112, 72 h
[18] = system: Micrococcus flavus; test: Antibacterial activity against Micrococcus flavus ATCC 10240 after 24 hrs by microdilution method; assay type: functional; conditions: ATCC 10240, 24 h
[19] = system: Salmonella typhimurium; test: Antibacterial activity against Salmonella typhimurium ATCC 13311 after 24 hrs by microdilution method; assay type: functional, Salmonella enterica subsp. enterica serovar Typhimurium; conditions: Salmonella enterica, ATCC 13311, 24 h
[20] = system: Aspergillus ochraceus; test: Antifungal activity against Aspergillus ochraceus ATCC 12066 after 72 hrs by serial dilution method; assay type: functional; conditions: ATCC 12066, 72 h
[21] = system: Pseudomonas aeruginosa; test: Bactericidal activity against Pseudomonas aeruginosa ATCC 27853 incubated for 24 hrs followed by serial sub-cultivation and measured after 24 hrs by microdilution method; assay type: functional
[22] = system: Escherichia coli; test: Antibacterial activity against Escherichia coli ATCC 35210 after 24 hrs by microdilution method; assay type: functional; conditions: ATCC 35210, 24 h
[23] = system: Enterobacter cloacae; test: Bactericidal activity against Enterobacter cloacae incubated for 24 hrs followed by serial sub-cultivation and measured after 24 hrs by microdilution method; assay type: functional
[24] = system: Listeria monocytogenes; test: Bactericidal activity against Listeria monocytogenes NCTC 7973 incubated for 24 hrs followed by serial sub-cultivation and measured after 24 hrs by microdilution method; assay type: functional
[25] = system: Micrococcus flavus; test: Bactericidal activity against Micrococcus flavus ATCC 10240 incubated for 24 hrs followed by serial sub-cultivation and measured after 24 hrs by microdilution method; assay type: functional
[26] = system: Bacillus cereus; test: Bactericidal activity against Bacillus cereus incubated for 24 hrs followed by serial sub-cultivation and measured after 24 hrs by microdilution method; assay type: functional
[27] = system: Aspergillus niger; test: Fungicidal activity against Aspergillus niger ATCC 6275 incubated for 72 hrs followed by serial sub-cultivation for 72 hrs and measured after 72 hrs by serial dilution method; assay type: functional
[28] = system: Aspergillus ochraceus; test: Fungicidal activity against Aspergillus ochraceus ATCC 12066 incubated for 72 hrs followed by serial sub-cultivation for 72 hrs and measured after 72 hrs by serial dilution method; assay type: functional
[29] = system: Staphylococcus aureus; test: Bactericidal activity against Staphylococcus aureus ATCC 6538 incubated for 24 hrs followed by serial sub-cultivation and measured after 24 hrs by microdilution method; assay type: functional
[30] = system: Candida albicans; test: Fungicidal activity against Candida albicans incubated for 72 hrs followed by serial sub-cultivation for 72 hrs and measured after 72 hrs by serial dilution method; assay type: functional
[31] = system: Trichoderma viride; test: Antifungal activity against Trichoderma viride IAM 5061 after 72 hrs by serial dilution method; assay type: functional; conditions: IAM 5061, 72 h
[32] = system: Aspergillus fumigatus; test: Fungicidal activity against Aspergillus fumigatus incubated for 72 hrs followed by serial sub-cultivation for 72 hrs and measured after 72 hrs by serial dilution method; assay type: functional

Structure (SMILES)	MIC [1] [µM]	MFC99.5 [2] [×10⁻² umol/ml]	MIC [3] [µM]	MFC99.5 [4] [×10⁻² umol/ml]	MIC [5] [µM]	MFC99.5 [6] [×10⁻² umol/ml]	MBC99.5 [7] [×10⁻² umol/ml]	MIC [8] [µM]	MFC99.5 [9] [×10⁻² umol/ml]	MIC [10] [µM]	MBC99.5 [11] [×10⁻² umol/ml]	MIC [12] [µM]	MIC [13] [µM]	MIC [14] [µM]	MIC [15] [µM]	MIC [16] [µM]	MIC [17] [µM]	MIC [18] [µM]	MIC [19] [µM]	MIC [20] [µM]	other results
O=C(Cc1nsc2ccccc12)N/N=C/c1c(F)cccc1F	91 (≈ 30.2 µg/mL)	12.1	116 (≈ 38.4 µg/mL)	12.1	116 (≈ 38.4 µg/mL)	24.1	23.2	29 (≈ 9.61 µg/mL)	12.1	482 (≈ 160 µg/mL)	23.2	121 (≈ 40.1 µg/mL)	116 (≈ 38.4 µg/mL)	121 (≈ 40.1 µg/mL)	116 (≈ 38.4 µg/mL)	91 (≈ 30.2 µg/mL)	181 (≈ 60 µg/mL)	116 (≈ 38.4 µg/mL)	116 (≈ 38.4 µg/mL)	121 (≈ 40.1 µg/mL)	MBC99.5 [21]: 23.2 ×10⁻² umol/ml; MIC [22]: 116 µM (≈ 38.4 µg/mL); MBC99.5 [23]: 23.2 ×10⁻² umol/ml; MBC99.5 [24]: 23.2 ×10⁻² umol/ml; MBC99.5 [25]: 23.2 ×10⁻² umol/ml; MBC99.5 [26]: 23.2 ×10⁻² umol/ml; MFC99.5 [27]: 24.1 ×10⁻² umol/ml; MFC99.5 [28]: 24.1 ×10⁻² umol/ml; MBC99.5 [29]: 23.2 ×10⁻² umol/ml; MFC99.5 [30]: 24.1 ×10⁻² umol/ml; MIC [31]: 61 µM (≈ 20.2 µg/mL); MFC99.5 [32]: 96.4 ×10⁻² umol/ml
O=C(NN1C(=O)CSC1c1cccc(F)c1)c1nsc2ccccc12 (stereo unspecified)	107 (≈ 40 µg/mL)	10.7	214 (≈ 79.9 µg/mL)	10.7	107 (≈ 40 µg/mL)	21.4	21.4	107 (≈ 40 µg/mL)	21.4	54 (≈ 20.2 µg/mL)	40.2	107 (≈ 40 µg/mL)	214 (≈ 79.9 µg/mL)	107 (≈ 40 µg/mL)	214 (≈ 79.9 µg/mL)	54 (≈ 20.2 µg/mL)	107 (≈ 40 µg/mL)	214 (≈ 79.9 µg/mL)	214 (≈ 79.9 µg/mL)	292 (≈ 109 µg/mL)	MBC99.5 [21]: 80.4 ×10⁻² umol/ml; MIC [22]: 160 µM (≈ 59.7 µg/mL); MBC99.5 [23]: 21.4 ×10⁻² umol/ml; MBC99.5 [24]: 40.2 ×10⁻² umol/ml; MBC99.5 [25]: 40.2 ×10⁻² umol/ml; MBC99.5 [26]: 40.2 ×10⁻² umol/ml; MFC99.5 [27]: 21.4 ×10⁻² umol/ml; MFC99.5 [28]: 40.2 ×10⁻² umol/ml; MBC99.5 [29]: 21.4 ×10⁻² umol/ml; MFC99.5 [30]: 21.4 ×10⁻² umol/ml; MIC [31]: 54 µM (≈ 20.2 µg/mL); MFC99.5 [32]: 10.7 ×10⁻² umol/ml
O=C(Cc1nsc2ccccc12)NN1C(=O)CSC1c1c(F)cccc1Cl (stereo unspecified)	49 (≈ 20.7 µg/mL)	9.8	270 (≈ 114 µg/mL)	4.9	147 (≈ 62 µg/mL)	9.8	36.7	147 (≈ 62 µg/mL)	9.8	98 (≈ 41.3 µg/mL)	36.7	196 (≈ 82.7 µg/mL)	367 (≈ 155 µg/mL)	49 (≈ 20.7 µg/mL)	147 (≈ 62 µg/mL)	49 (≈ 20.7 µg/mL)	49 (≈ 20.7 µg/mL)	270 (≈ 114 µg/mL)	196 (≈ 82.7 µg/mL)	98 (≈ 41.3 µg/mL)	MBC99.5 [21]: 36.7 ×10⁻² umol/ml; MIC [22]: 270 µM (≈ 114 µg/mL); MBC99.5 [23]: 19.6 ×10⁻² umol/ml; MBC99.5 [24]: 73.4 ×10⁻² umol/ml; MBC99.5 [25]: 36.7 ×10⁻² umol/ml; MBC99.5 [26]: 36.7 ×10⁻² umol/ml; MFC99.5 [27]: 36.7 ×10⁻² umol/ml; MFC99.5 [28]: 19.6 ×10⁻² umol/ml; MBC99.5 [29]: 19.6 ×10⁻² umol/ml; MFC99.5 [30]: 9.8 ×10⁻² umol/ml; MIC [31]: 38 µM (≈ 16 µg/mL); MFC99.5 [32]: 19.6 ×10⁻² umol/ml
